{
  "source": "paper PMC12498190",
  "about": "“A Photocaged N‐Phosphonopiperidinone as a Selective Photo‐Cleavable DPP8/9 Inhibitor” (Chembiochem, 2025)",
  "key": {"human DPP4": {"biological_target": "T1, human DPP4 (Homo sapiens, UniProt P27487)", "T1 construct": "purchased Proteros Biostructures GmbH, Germany", "T1 sequence (P27487 whole entry)": "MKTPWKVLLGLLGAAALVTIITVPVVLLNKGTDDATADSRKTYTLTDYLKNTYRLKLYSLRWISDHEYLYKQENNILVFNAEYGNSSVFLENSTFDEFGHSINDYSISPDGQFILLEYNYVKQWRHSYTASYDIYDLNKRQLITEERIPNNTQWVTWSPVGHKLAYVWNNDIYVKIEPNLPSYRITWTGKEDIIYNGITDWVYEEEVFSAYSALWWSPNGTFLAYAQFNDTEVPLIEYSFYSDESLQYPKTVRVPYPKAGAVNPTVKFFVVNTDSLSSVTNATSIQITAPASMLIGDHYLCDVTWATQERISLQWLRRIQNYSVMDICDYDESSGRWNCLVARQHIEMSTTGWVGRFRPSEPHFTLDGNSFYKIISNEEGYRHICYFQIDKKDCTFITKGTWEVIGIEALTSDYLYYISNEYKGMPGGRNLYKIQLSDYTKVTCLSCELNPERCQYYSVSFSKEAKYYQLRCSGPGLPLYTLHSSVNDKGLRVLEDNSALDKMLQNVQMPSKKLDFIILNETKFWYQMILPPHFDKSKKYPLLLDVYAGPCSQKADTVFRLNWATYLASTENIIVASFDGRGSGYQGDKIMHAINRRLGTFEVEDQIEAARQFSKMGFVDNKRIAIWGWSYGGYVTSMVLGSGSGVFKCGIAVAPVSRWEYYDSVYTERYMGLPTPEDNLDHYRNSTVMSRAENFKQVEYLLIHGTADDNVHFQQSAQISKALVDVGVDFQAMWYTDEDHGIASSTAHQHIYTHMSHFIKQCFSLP", "test": "DPP4 enzyme inhibition assay, AMC release from GP-AMC", "format": "biochemical", "source_text": "We then continued to investigate the biochemical properties of the photocaged compound 5 versus the photoreleased product resembling inhibitor 1. To this end, we performed biochemical enzyme inhibition assays with DPP8 and DPP9 before and after irradiation of 5. Resulting DPP8/9 inhibition was quantified by following the DPP8‐ or DPP9‐mediated proteolysis of the fluorophore 7‐amino‐4‐methylcoumarin (AMC) from the model substrate Gly‐Pro‐AMC (Figure 1C,D and Table 1 ). To induce photocleavage of 5, reaction mixtures were irradiated for 5 min with the same green LED lamp as before, followed by a pre‐incubation of 45 min with the photoreleased inhibitor prior to substrate addition.\nEnzyme activity of human DPP4, DPP8, and DPP9 (Proteros Biostructures GmbH, Germany) was determined by measuring the initial velocity of AMC release from the fluorogenic substrate GP‐AMC (Sigma Aldrich, USA) using a Tecan Spark 10 M multimode microplate reader (Tecan Group Ltd., Switzerland) in activity buffer (20 mM HEPES/KOH pH 7.3, 110 mM potassium acetate, 2 mM magnesium acetate, 0.5 mM EGTA, 0.02% Tween 20, supplemented with 1 mM DTT) and a final volume of 20 μL for maximal 30 min at 30 °C. Prior to the activity measurement, 10 nM of the corresponding enzyme was incubated for 45 min at 30 °C and gentle shaking with the indicated compounds at concentrations ranging from 0 to 100 μM, followed by irradiation with a green LED lamp (λ = 520−530 nm; Eurolite, Germany) for 5 min. The corresponding compounds were dissolved in DMSO and diluted in activity buffer (final DMSO concentration: 1%). To the inhibitor–enzyme mixture, GP‐AMC was then added to a final concentration of 250 μM, and the activity measurement was started. The resulting enzyme activity was calculated from the slope (fluorescence release over time) and plotted against the concentrations of the inhibitor. Apparent IC50 values were calculated using Graph‐Pad Prism v10.4.1 using the equation: [Inhibitor] versus response‐Variable slope (four parameters). […]"}, "HEK293 cells": {"system": "HEK293 cells", "test": "Cell viability assay (MTT)", "format": "cell-based, human", "details": "24 h; for Viability of cells (in words): after 5 min green light irradiation", "description": "Figure 2 Competitive ABPP with photo‐cleavable inhibitor 5 in HEK293 cells. A) Schematic overview of a competitive ABPP experiment. A proteome is pre‐incubated with a competitor, followed by a labeling reaction with an activity‐based probe (ABP). In the case of a photocaged inhibitor, the active compound can be released via irradiation. Target proteins of the competitor cannot be bound by the ABP, resulting in an absence of the respective protein band in‐gel analysis. Created in BioRender. Najdzion, M. (2025) https://BioRender.com/84zn8cb B) Gel‐based competitive ABPP experiment in HEK293 cell lysates with the broadband serine hydrolase ABP ≡FP or the DPP8/9‐directed ABP 2 and the photocaged inhibitor 5, at the indicated concentrations, after or without prior irradiation with green light for 5 min. The corresponding pre‐incubation time for 5 was 30 min. C) Corresponding in situ competitive ABPP experiment in HEK293 cell culture, again with 10 µM 2 for 1 h. Labeling was competed by pre‐incubation with 20 µM 5 for 1 h, followed by an activation of the photocaged inhibitor by irradiation for 5 min with a green LED lamp, if applicable. D) Green light treatment has no cytotoxic effect. HEK293 cells were irradiated with a green LED lamp in the presence of 0.5% DMSO for 5 min (‘light’), and cell viability was measured after 24 h. […] Data was normalized to the non‐irradiated control (‘dark’). E) Green light treatment leads to the release of the active DPP8/9 inhibitor. HEK293 cells were incubated with compound 1 or 5 for 24 h. For both compounds, cell viability was measured under ‘dark’ (not irradiated) and ‘light’ (irradiated for 5 min with a green LED lamp after the addition of the inhibitor) conditions. […] Data was normalized to the non‐irradiated DMSO control.\nIn order to validate target engagement in living cells and potential cytotoxic effects of green light treatment, we determined cell viability of HEK293 cells after 24 h inhibitor treatment with 5 with or without 5 min green light irradiation, as the application of DPP8/9 inhibitors at high concentrations and thus elimination of any residual DPP8/9 activity results in cytotoxicity.^[ [38], [39] ^– [40] ^] As a control, effects of green light treatment on cell viability were examined in the absence of any inhibitor after 24 h, again with or without 5 min irradiation (Figure 2D). […] Of note, no additional effect of the photocage on cell viability was observed. In summary, our cell viability studies confirm target engagement in live cells exclusively after photorelease, thereby again confirming the suitability of the photocaged DPP8/9 inhibitor 5 as a cell biological tool compound.\nTo investigate the cytotoxicity of compounds, 2 × 10^4 HEK293 cells were cultured in DMEM (+/+) on 96‐well flat‐bottom cell culture plates (Sarstedt, Germany) as described above. After 24 h, cells were treated with indicated concentrations of compounds (final DMSO concentration: 0.5%) and, if applicable, irradiated with a green LED lamp (λ = 520−530 nm; Eurolite, Germany) for 5 min. Control cells were treated with DMSO. Cell viability was measured 24 h after compound treatment. To this end, 25 µL Thiazolyl Blue Tetrazolium Bromide (MTT) solution (5 mg mL^−1 MTT (Sigma Aldrich, USA) in PBS (Gibco, USA)) was added to each well directly into the medium. After 3 h of incubation at 37 °C, the medium was removed and formazan crystals were dissolved by adding 150 µL DMSO (1 h, 37 °C, gentle shaking), followed by an absorbance measurement at 570 and 630 nm as a reference using a Tecan Spark 10 M multimode microplate reader (Tecan Group Ltd., Switzerland). Each experiment was performed with five replicates. Relative cell viability was expressed as a percentage relative to the DMSO‐treated control cells."}},
  "note": "pIC50: −log10 of the molar value.",
  "data": [
    {"smiles": "CCCCCc1ccc(SCCP(=O)(OCC)N2CCC[C@H](NC(=O)OCC3=C4C(C)=CC(C)=[N+]4[B-](C)(C)n4c(C)cc(C)c43)C2=O)cc1", "note": "(stereo partly drawn) [Compound 5]", "values": [
      {"measurement": "pIC50", "setting": "human DPP4; DPP4, dark (without green light irradiation), 45 min pre-incubation, read-out: Apparent IC50", "value": "< 4.00"},
      {"measurement": "DPP4 inhibition (in words)", "setting": "human DPP4; irradiated", "value": "not inhibited"},
      {"measurement": "DPP4 inhibition (in words)", "setting": "human DPP4; non-irradiated", "value": "not inhibited"},
      {"measurement": "Viability of cells (in words)", "setting": "HEK293 cells; 25 µM", "value": "significantly reduced"},
      {"measurement": "Viability of cells (in words)", "setting": "HEK293 cells; 50 µM", "value": "significantly reduced"},
      {"measurement": "Cytotoxicity (in words)", "setting": "HEK293 cells; dark, up to highest concentrations used", "value": "no cytotoxicity"}
    ]}
  ]
}
